From patent US8217085B2 (priority 2009, dated 2012)
Where “and” joins values, the source holds several entries; their conditions need not be identical. Equal values may be shown once. Read-outs that look alike come from different tables or passages of the source.

Test system: ATCC strain 43300 Staphylococcus aureus
[1] = 5% MSM, 12 μg/ml oxacillin, 24 hours
[2] = 5% MSM, 30 μg/ml oxacillin, 24 hours
[3] = 5% MSM, 60 μg/ml oxacillin, 24 hours
[4] = 6% MSM, 12 μg/ml oxacillin, 24 hours
[5] = 6% MSM, 30 μg/ml oxacillin, 24 hours
[6] = 6% MSM, 60 μg/ml oxacillin, 24 hours
[7] = 7% MSM, 12 μg/ml oxacillin, 24 hours
[8] = 7% MSM, 30 μg/ml oxacillin, 24 hours
[9] = 7% MSM, 60 μg/ml oxacillin, 24 hours
[10] = 8% MSM, 12 μg/ml oxacillin, 24 hours
[11] = 8% MSM, 30 μg/ml oxacillin, 24 hours
[12] = 8% MSM, 60 μg/ml oxacillin, 24 hours
[13] = 9% MSM, 12 μg/ml oxacillin, 24 hours
[14] = 9% MSM, 30 μg/ml oxacillin, 24 hours
[15] = 9% MSM, 60 μg/ml oxacillin, 24 hours
[16] = 10% MSM, 12 μg/ml oxacillin, 24 hours
[17] = 10% MSM, 12 μg/ml oxacillin, 48 hours
[18] = 10% MSM, 30 μg/ml oxacillin, 24 hours
[19] = 10% MSM, 60 μg/ml oxacillin, 24 hours
[20] = 11% MSM, 12 μg/ml oxacillin, 24 hours
[21] = 11% MSM, 12 μg/ml oxacillin, 48 hours
[22] = 11% MSM, 30 μg/ml oxacillin, 24 hours

Procedure: Additional antibiotic was added every 24 hours.
USP<51> Antimicrobial Effectiveness protocol was used as the template experimental paradigm. […] All concentrations were plated out to the 10^−7 dilutionsto ascertain cfu/ml. […] Additional antibiotic was added at the initial concentration every 24 hours.
ATCC strain 43300 Staphylococcus aureus was streaked out for isolations. An isolated colony was chosen, streaked again and incubated. Isolate was chosen and then diluted to a McFarland standard of one. The estimated value was then taken to inoculate tubes containing growth media and 12, 30 or 60 μg/ml oxacillin with approximately 10^5 cfu/ml. These tubes were incubated and plated for counting cfu.
Material was calculated on a 10 ml volume. Sterile oxacillin was added to each experimental condition to a final concentration of 12, 30 or 60 μg/ml antibiotic.
All tubes were then inoculated with a dilution of the selected ATCC strain 43300 Staphylococcus aureus clone giving a final level of colony forming units of 3.3×10^5/ml (log=5.52). The tubes were incubated at 25° C. and mixed periodically. Antibiotic was re-inoculated every 24 hours at the initial concentration to maintain pressure on the organism. Plating was done at 24, 48, 72, and 120 hours. Each condition was plated by diluting 1 ml of growth material into 9 ml of MLB diluent broth. […] This mixture was serial diluted down to 10^−7 with 1 ml placed in triplicate in a sterile petri dish at each dilution point. 20 mls of TSA was added to each dilution, swirled and allowed to solidify. All dilutions were placed in a 35° C. incubator for 24 to 72 hours. Bacterial colonies on each plate were counted and the average taken then changed into log format. Any cfu/ml observed greater than 3.3×10^5 (log=5.5) were recorded as >3.3×10^5.

Q: Which “Average Log” value [1] does the source give for `CS(C)(=O)=O` [MSM, methylsulfonylmethane] here?
A: Its value is 3.91 Log.

Q: And the survival [1]?
A: The survival was 8.4 × 10^3 cfu/ml and 8.0 × 10^3 cfu/ml.

Q: What about the “Average Log” value (5% MSM, 12 μg/ml oxacillin, 48 hours) of the same molecule?
A: The value was 3.6 Log.

Q: And the “Average Log” value (5% MSM, 12 μg/ml oxacillin, 72 hours)?
A: Its value is 5.5 Log.

Q: What about the “Average Log” value [2] of the same molecule?
A: Its value is 2.51 Log.

Q: And the survival [2]?
A: The survival was 3.1 × 10^2 cfu/ml and 3.3 × 10^2 cfu/ml.

Q: What about the “Average Log” value (5% MSM, 30 μg/ml oxacillin, 48 hours) of the same molecule?
A: The value was 3.8 Log.

Q: And the “Average Log” value (5% MSM, 30 μg/ml oxacillin, 72 hours)?
A: The value was 5.5 Log.

Q: What about the “Average Log” value [3] of the same molecule?
A: Its value is 2.54 Log.

Q: What about the survival [3] of the same molecule?
A: The survival was 3.5 × 10^2 cfu/ml and 3.3 × 10^2 cfu/ml and 3.6 × 10^2 cfu/ml.

Q: What about the “Average Log” value (5% MSM, 60 μg/ml oxacillin, 48 hours) of the same molecule?
A: Its value is 3.5 Log.

Q: And the growth (5%, 10% and 16% MSM, no antibiotic, 24 hours)?
A: Its growth is “turbid growth”.

Q: What about the “Average Log” value [4] of the same molecule?
A: Its value is 3.92 Log.

Q: What about the survival [4] of the same molecule?
A: Its survival is 8.6 × 10^3 cfu/ml and 8.5 × 10^3 cfu/ml and 8.0 × 10^3 cfu/ml.

Q: What about the “Average Log” value (6% MSM, 12 μg/ml oxacillin, 48 hours) of the same molecule?
A: Its value is 3.2 Log.

Q: And the “Average Log” value (6% MSM, 12 μg/ml oxacillin, 72 hours)?
A: The value was 5.5 Log.

Q: And the “Average Log” value [5]?
A: Its value is 2.46 Log.

Q: And the survival [5]?
A: The survival was 2.9 × 10^2 cfu/ml.

Q: What about the “Average Log” value (6% MSM, 30 μg/ml oxacillin, 48 hours) of the same molecule?
A: The value was 3.7 Log.

Q: What about the “Average Log” value (6% MSM, 30 μg/ml oxacillin, 72 hours) of the same molecule?
A: The value was 5.5 Log.

Q: What about the “Average Log” value [6] of the same molecule?
A: Its value is 2.38 Log.

Q: And the survival [6]?
A: Its survival is 2.4 × 10^2 cfu/ml.

Q: And the “Average Log” value (6% MSM, 60 μg/ml oxacillin, 48 hours)?
A: Its value is 1.8 Log.

Q: What about the “Average Log” value [7] of the same molecule?
A: Its value is 3.91 Log.

Q: And the survival [7]?
A: The survival was 8.2 × 10^3 cfu/ml and 8.5 × 10^3 cfu/ml and 8.3 × 10^3 cfu/ml.

Q: What about the “Average Log” value (7% MSM, 12 μg/ml oxacillin, 48 hours) of the same molecule?
A: Its value is 3.9 Log.

Q: What about the “Average Log” value (7% MSM, 12 μg/ml oxacillin, 72 hours) of the same molecule?
A: The value was 5.5 Log.

Q: And the “Average Log” value [8]?
A: The value was 2.98 Log.

Q: And the survival [8]?
A: The survival was 9.7 × 10^2 cfu/ml and 9.6 × 10^2 cfu/ml and 9.2 × 10^2 cfu/ml.

Q: And the “Average Log” value (7% MSM, 30 μg/ml oxacillin, 48 hours)?
A: Its value is 2.3 Log.

Q: What about the “Average Log” value (7% MSM, 30 μg/ml oxacillin, 72 hours) of the same molecule?
A: Its value is 4.5 Log.

Q: What about the “Average Log” value [9] of the same molecule?
A: The value was 2.34 Log.

Q: And the survival [9]?
A: The survival was 2.1 × 10^2 cfu/ml and 2.3 × 10^2 cfu/ml.

Q: And the “Average Log” value (7% MSM, 60 μg/ml oxacillin, 48 hours)?
A: The value was 4.0 Log.

Q: And the “Average Log” value [10]?
A: Its value is 3.82 Log.

Q: What about the survival [10] of the same molecule?
A: The survival was 6.6 × 10^3 cfu/ml and 6.9 × 10^3 cfu/ml.

Q: And the “Average Log” value (8% MSM, 12 μg/ml oxacillin, 48 hours)?
A: Its value is 3.7 Log.

Q: And the “Average Log” value (8% MSM, 12 μg/ml oxacillin, 72 hours)?
A: The value was 5.5 Log.

Q: And the “Average Log” value [11]?
A: The value was 3.07 Log.

Q: And the survival [11]?
A: Its survival is 1.18 × 10^3 cfu/ml and 1.16 × 10^3 cfu/ml.

Q: And the “Average Log” value (8% MSM, 30 μg/ml oxacillin, 48 hours)?
A: The value was 3.1 Log.

Q: What about the “Average Log” value (8% MSM, 30 μg/ml oxacillin, 72 hours) of the same molecule?
A: Its value is 5.5 Log.

Q: And the “Average Log” value [12]?
A: The value was 2.67 Log.

Q: And the survival [12]?
A: The survival was 4.6 × 10^2 cfu/ml and 5.0 × 10^2 cfu/ml.

Q: What about the “Average Log” value (8% MSM, 60 μg/ml oxacillin, 48 hours) of the same molecule?
A: The value was 2.8 Log.

Q: And the “Average Log” value [13]?
A: The value was 3.72 Log.

Q: And the survival [13]?
A: Its survival is 5.6 × 10^3 cfu/ml and 5.2 × 10^3 cfu/ml and 5.0 × 10^3 cfu/ml.

Q: What about the “Average Log” value (9% MSM, 12 μg/ml oxacillin, 48 hours) of the same molecule?
A: The value was 3.4 Log.

Q: What about the “Average Log” value (9% MSM, 12 μg/ml oxacillin, 72 hours) of the same molecule?
A: The value was 4.5 Log.

Q: And the “Average Log” value [14]?
A: The value was 3.01 Log.

Q: What about the survival [14] of the same molecule?
A: The survival was 1.06 × 10^3 cfu/ml and 1.05 × 10^3 cfu/ml and 1.02 × 10^3 cfu/ml.

Q: And the “Average Log” value (9% MSM, 30 μg/ml oxacillin, 48 hours)?
A: Its value is 2.4 Log.

Q: What about the “Average Log” value (9% MSM, 30 μg/ml oxacillin, 72 hours) of the same molecule?
A: The value was 2.9 Log.

Q: What about the “Average Log” value [15] of the same molecule?
A: The value was 2.50 Log.

Q: What about the survival [15] of the same molecule?
A: Its survival is 3.2 × 10^2 cfu/ml.

Q: What about the “Average Log” value (9% MSM, 60 μg/ml oxacillin, 48 hours) of the same molecule?
A: Its value is 2.2 Log.

Q: What about the “Average Log” value [16] of the same molecule?
A: Its value is 3.76 Log.

Q: And the survival [16]?
A: The survival was 5.8 × 10^3 cfu/ml and 5.6 × 10^3 cfu/ml and 6.0 × 10^3 cfu/ml.

Q: And the “Average Log” value [17]?
A: Its value is 2.7 Log.

Q: And the survival [17]?
A: Its survival is 5.6 × 10^2 cfu/ml.

Q: What about the “Average Log” value (10% MSM, 12 μg/ml oxacillin, 72 hours) of the same molecule?
A: The value was 4.0 Log.

Q: And the “Average Log” value [18]?
A: The value was 3.32 Log.

Q: What about the survival [18] of the same molecule?
A: The survival was 2.2 × 10^3 cfu/ml and 2.0 × 10^3 cfu/ml.

Q: And the “Average Log” value (10% MSM, 30 μg/ml oxacillin, 48 hours)?
A: Its value is 2.6 Log.

Q: What about the “Average Log” value (10% MSM, 30 μg/ml oxacillin, 72 hours) of the same molecule?
A: The value was 3.9 Log.

Q: What about the “Average Log” value [19] of the same molecule?
A: Its value is 2.63 Log.

Q: And the survival [19]?
A: The survival was 4.2 × 10^2 cfu/ml and 4.4 × 10^2 cfu/ml.

Q: What about the “Average Log” value (10% MSM, 60 μg/ml oxacillin, 48 hours) of the same molecule?
A: Its value is 2.2 Log.

Q: What about the “Average Log” value [20] of the same molecule?
A: The value was 3.91 Log.

Q: And the survival [20]?
A: The survival was 8.2 × 10^3 cfu/ml and 8.5 × 10^3 cfu/ml and 8.0 × 10^3 cfu/ml.

Q: And the “Average Log” value [21]?
A: Its value is 2.8 Log.

Q: And the survival [21]?
A: The survival was 6.4 × 10^2 cfu/ml and 5.8 × 10^2 cfu/ml and 6.5 × 10^2 cfu/ml.

Q: What about the “Average Log” value (11% MSM, 12 μg/ml oxacillin, 72 hours) of the same molecule?
A: The value was 3.6 Log.

Q: And the “Average Log” value [22]?
A: Its value is 3.57 Log.

Q: And the survival [22]?
A: The survival was 3.9 × 10^3 cfu/ml and 3.7 × 10^3 cfu/ml.

Q: And the “Average Log” value (11% MSM, 30 μg/ml oxacillin, 48 hours)?
A: Its value is 2.4 Log.

Q: What about the “Average Log” value (11% MSM, 30 μg/ml oxacillin, 72 hours) of the same molecule?
A: The value was 3.2 Log.
